1 compound from paper PMC4635504, “Characterization of a bifidobacterial system that utilizes galacto-oligosaccharides” (Microbiology, 2015) can be followed below.

Usually Kd stands for the constant that tells how readily two partners part at equilibrium. Read a low Kd as tighter binding.

This assay has as its target T1, BbrY_0420 (SBP of the ABC transporter) (Bifidobacterium breve, UniProt A0AAX3NJV5).
T1 sequence (A0AAX3NJV5 1-449): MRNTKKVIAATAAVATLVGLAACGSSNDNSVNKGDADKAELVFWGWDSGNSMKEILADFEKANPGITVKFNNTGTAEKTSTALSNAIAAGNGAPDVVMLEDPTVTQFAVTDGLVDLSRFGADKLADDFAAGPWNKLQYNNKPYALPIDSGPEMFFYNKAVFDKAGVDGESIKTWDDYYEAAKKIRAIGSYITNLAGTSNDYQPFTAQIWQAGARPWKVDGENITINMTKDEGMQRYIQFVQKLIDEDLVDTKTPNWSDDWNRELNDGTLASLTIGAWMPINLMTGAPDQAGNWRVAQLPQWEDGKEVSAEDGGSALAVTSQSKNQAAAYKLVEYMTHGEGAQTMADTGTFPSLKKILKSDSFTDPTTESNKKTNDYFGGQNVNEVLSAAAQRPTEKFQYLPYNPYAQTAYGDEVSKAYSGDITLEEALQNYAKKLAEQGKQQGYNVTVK
The settings on record: HBS-P+ buffer, 25 °C, one-site binding model.

Structures are written as SMILES.

The compound `OC[C@H]1O[C@@H](O[C@@H]2[C@H](O)[C@@H](O)[C@H](O[C@H]3[C@H](O)[C@@H](O)C(O)O[C@@H]3CO)O[C@@H]2CO)[C@H](O)[C@@H](O)[C@H]1O` (stereo partly shown) [4′-GL, 4′-galactosyllactose] yielded a Kd of 10.4 µM.
